Entries after “also recorded” stand apart in the source; their conditions may differ.
Assays:
[1] = system: sFGFR; test: aFGF/sFGFR/heparin complex formation by non-denaturing PAGE; format: binding, human; conditions: aFGF alone or heparin alone
Description: aFGF, heparin or a mixture of aFGF and heparin were added to sFGFR. Free aFGF and sFGFR were separated from the complexes by gel-filtration, and fractions containing the complexes were analyzed by non-denaturing PAGE. Proteins were visualized by staining with Coomasie Brilliant blue. Various oligomerization states of aFGF/sFGFR are detected only in the presence of heparin.
aFGF alone, or a pre-incubated mixture of heparin and aFGF (molar ratio 1:10) was added to a solution containing sFGFR. The mixtures were then incubated for 20 min at room temperature in 20 mM Hepes pH 7.5, 200 mM NaCl. Size-exclusion chromatography, using a Superose 12 column (Pharmacia), was then employed to separate free aFGF and sFGFR from the complex that formed. Fractions containing the isolated complexes were pooled, and analyzed by non-denaturing PAGE (4-15% gradient gels), using the Phastsystem (Pharmacia). Gels were stained with Coomassie Blue. In the case of the sFGFR/heparin mixture (FIG. 4, lane 2), heparin was simply added to the sFGFR solution prior to electrophoresis.
The requirement of both heparin and aFGF for the induction of sFGFR dimerization was also confirmed in a second experimental system. sFGFR was incubated with aFGF alone, or with aFGF plus heparin.

[2] = system: sFGFR (soluble extracellular domain of FGFR2); test: Covalent cross-linking (DSS) of sFGFR, dimerization; format: biochemical, human
Description: Purified sFGFR was incubated with aFGF in the presence (lanes 2, 4, 6 and 8) or absence (lanes 1, 3, 5 and 7) of heparin for 1 hour at room temperature. The covalent cross-linker, DSS, was then added and incubation was continued for a further 45 minutes. Samples were then boiled in Laemmli sample buffer, separated by SDS-PAGE (6-12% gradient gel), and transferred to a nitro-cellulose membrane. The protein bands were visualized by blotting with anti-FGFR2 (lanes 1-4) or anti-aFGF antibodies (lanes 5-8), followed by ^125 I-protein A. I-sFGFR monomers; II-aFGF/sFGFR complex (monomeric); III-aFGF/sFGFR complex (dimeric).
A plasmid encoding the extracellular, ligand-binding domain of human FGFR2 (residues 1-355) was constructed using standard oligonucleotide-directed mutagenesis (Amersham) to introduce a translational termination codon immediately prior to the beginning of the single transmembrane domain of the receptor (Dionne et al., 1990). BamHI and SacII restriction sites were introduced 3' to the new termination codon. An XbaI-SacII fragment was isolated from the replicative form (RF) of this M13 mutagenesis product, filled in using T4 DNA polymerase (Boehringer-Mannheim) and inserted into the SmaI site of the expression vector pCVN (Dionne et al., 1990). This expression vector, which contains both the neomycin resistance and the dihydrofolate reductase genes for selection and amplification, was transfected into CHO cells following published procedures. Wigler et al., 1979, Cell 16:777-785.
Purified sFGFR (0.2 μM) was incubated with aFGF (0.6 μM) in the presence or absence of heparin. […] Cross-linking studies of aFGF alone were performed using the same procedure, except that samples were analyzed by 15% SDS-PAGE and detected by staining with Coomassie Brilliant Blue.
If aFGF activates its receptor in a similar manner, aFGF binding to sFGFR would therefore be expected to promote its dimerization. […] Samples were then analyzed by SDS-PAGE, followed by immunoblotting with either anti-FGFR2 or anti-aFGF antibodies. […]

Substance	mobility of sFGFR in non-denaturing PAGE [1]	sFGFR dimerization, aFGF alone ([2]; no heparin)	sFGFR dimerization, heparin plus aFGF ([2]; both heparin and aFGF)	effect on mobility of sFGFR, heparin alone ([2]; no aFGF)
aFGF: aFGF was expressed in E. coli and purified by binding to a heparin-sepharose column	reduced slightly	No cross-linked dimeric form of sFGFR could be detected; also recorded: they were not detected in the presence of aFGF alone; also recorded: did not, however, result in the formation of dimers of the receptor extracellular domain		
heparin	no significant effect upon the migration of sFGFR		cross-linked dimers of sFGFR are formed under these conditions; also recorded: the binding of aFGF to sFGFR did lead to its dimerization	did not affect the mobility of sFGFR

From US5783568A, “Methods for treating cancer and other cell proliferative diseases” (Sugen, Inc., priority 1994, dated 1998)
